In patent publication US20230303539A1, “IMMUNOREGULATORY COMPOUND AND ANTITUMOR APPLICATION THEREOF” (SHANGHAITECH UNIVERSITY, priority 2020, published 2023):

How the values were obtained:
[1] = tested on: multiple myeloma cancer cells MM.1S; assay: Cell proliferation inhibition (cell viability, CCK-8) in MM.1S; type: cell-based; details: Homo sapiens, MM1.S; MM.1S cells, 72 h treatment, CCK-8 cell viability
From the text: (§1) The tested cell lines used were: Multiple myeloma cell line MM.1S, human Burkitt's lymphoma cell line Daudi, human acute promyelocytic leukemia cell line NB4, human mantle cell lymphoma cell line JEKO-1, human B-cell lymphoma cell line SU-DHL-4, human mantle cell lymphoma cell line Mino, human diffuse large B-cell lymphoma cell line TMD8, human B-cell lymphoma cell line DOHH2, PBMCs cell and human diffuse large B-cell lymphoma cell line WSU-DLCL2, which were purchased from ATCC (American type Culture Collection) or Cell Bank/Stem Cell Bank, Chinese Academy of Sciences. The medium was RPMI1640 supplemented with 10% FBS (fetal calf serum) and 1% Penicillin-Streptomycin. The cells used were identified as correct cells by STR cells, and were negative for mycoplasma through routine inspections.
(§2) IC50 values of the compounds of the present disclosure (including the compounds in Table 1 and compounds of examples 1-23) were measured using Cell Titer Blue, Cell Titer GLO, or WST reagent from Promega Company. Assay details are as follows: Cells were seeded in 100 μL RPMI1640 medium containing serum at a density of 15,000 cells/well. After 24 h, the inoculated cells were treated with diluted commercial inhibitor and the compounds of the present disclosure to be tested after serial dilution. After the cells were treated with the compounds of the present disclosure to be tested for 72 h, cell viability was determined after adding the cell viability detection kit listed above according to the reagent operating instructions. The negative control was DMSO, and the positive control was a commercial inhibitor, both of which were used to treat the cells through the same method as that of the compounds of the present disclosure. The growth inhibition of the compounds of the present disclosure on cells was plotted by Prism Graphpad software, and the IC50 values of the compounds of the present disclosure were calculated therefrom.
(§3) We tested the activities of the compounds of the present invention (including the compounds in Table 1 and Examples 1-23 compounds) in multiple myeloma cancer cells MM.1S cell and B lymphoma cells Daudi through a dose-dependent manner. The cells were treated with the compounds of the present invention at 10 different successively decreasing concentrations (starting at the highest concentration of […]; 5-fold serial dilutions) for 72 h, and then the cell viability determination was performed in accordance with CCK-8 reagent operating instructions.

[2] = tested on: B lymphoma cells Daudi; assay: Cell proliferation inhibition (cell viability, CCK-8) in Daudi; type: cell-based; details: Homo sapiens, 72 h treatment, CCK-8 cell viability
From the text: as §1, §2, §3

[3] = tested on: TNF-α; assay: TNF-α inhibition in LPS-stimulated PBMC cells (ELISA); type: cell-based; details: LPS 1 ng/ml, 18-20 h, FIG. 2
Description: PBMC cells were cultured at 37° C. in 5% CO2 atmosphere, and then seeded in 96-well plates at […]. […] Cells were incubated in medium with or without compounds for 1 h, then stimulated with lipopolysaccharide (LPS; 1 ng/ml), and continually cultured for 18-20 h. Then, the supernatant was collected, diluted with serum-free medium, and tested for TNF-α level by ELISA kit. IC50 was then calculated by Graphpad Prism 7.0. Down-regulation of TNF-α expression is an important way of anti-tumor effect of immunomodulators.

[4] = tested on: human diffuse large B-cell lymphoma cell line TMD8; assay: Cell proliferation inhibition (CCK-8) in TMD8; type: cell-based; details: TMD8 cells, 72 h treatment, read-out: IC50 (half inhibitory concentration) in tumor cells, TMD8
From the text: as §1, with “The cells used were identified as correct cells by STR cells, and were negative for mycoplasma through routine inspections.” left out
(§4) IC50 values of the compounds of the present disclosure (including the compounds in Table 1 and compounds of examples 1-23) were measured using Cell Titer Blue, Cell Titer GLO, or WST reagent from Promega Company. […] After the cells were treated with the compounds of the present disclosure to be tested for 72 h, cell viability was determined after adding the cell viability detection kit listed above according to the reagent operating instructions. […] The growth inhibition of the compounds of the present disclosure on cells was plotted by Prism Graphpad software, and the IC50 values of the compounds of the present disclosure were calculated therefrom. […]

[5] = tested on: human B-cell lymphoma cell line DOHH2; assay: Cell proliferation inhibition (CCK-8) in DOHH2; type: cell-based; details: DOHH-2, DOHH2 cells, 72 h treatment, read-out: IC50 (half inhibitory concentration) in tumor cells, DOHH2
From the text: as §1, with “The cells used were identified as correct cells by STR cells, and were negative for mycoplasma through routine inspections.” left out
as §4

[6] = tested on: IKZF1/3; assay: IKZF protein degradation, western blotting assay in SU-DHL-4; type: cell-based, human; details: SU-DHL-4, western blotting, dose-dependent; FIGS. 4-5
Description: (§5) Most antibodies were purchased from Cell Signaling Technology, including IKZF1 (#9034S), IKZF3(#15103S), CK1α(#ab108296). GAPDH antibody was purchased from Abcam Company. Tumor cells were plated in a 24-well plate at a cell seeding density of 3×10^5 cells/mL, with 1 mL culture media per well. After 24 h, the cells were treated with different concentrations of the compounds of the present disclosure. After 16 hours, the cells were collected, and washed with PBS. The supernatant was discarded, and the cells were placed on ice, and treated with RIPA protein lysate containing Halt protease and phosphatase inhibitor. The lysate was centrifuged at 10000 RPM at 4° C. for 10 minutes, and the supernatant was collected. An equal amount of proteins were loaded in 4×SDS sample solution, denatured at 95° C. for 5 minutes, and then freezed to -20° C. or directly subjected to protein electrophoresis (4-15% gradient gel, Bio-rad). […] DC50 value (the drug concentration required for degrading proteins by 50%, abbreviated as DC50) reads method: comparing the gray values of the Western blotting bands for the drug treatment with the gray values of the Western blotting band for the DMSO control, and reading the drug concentration range corresponding to the gray value of the Western blotting bands for the drug treatment which is equal to half of the gray value of the Western blotting band for the DMSO control. […]

[7] = tested on: human mantle cell lymphoma cell line JEKO-1; assay: Cell proliferation inhibition (CCK-8) in JEKO-1; type: cell-based; details: JEKO-1 cells, 72 h treatment, FIG. 3
From the text: as §1, with “The cells used were identified as correct cells by STR cells, and were negative for mycoplasma through routine inspections.” left out
as §4

[8] = tested on: human B-cell lymphoma cell line SU-DHL-4; assay: Cell proliferation inhibition (CCK-8) in SU-DHL-4; type: cell-based; details: SU-DHL-4 cells, 72 h treatment, FIG. 3
From the text: as §1, with “The cells used were identified as correct cells by STR cells, and were negative for mycoplasma through routine inspections.” left out
as §4

[9] = tested on: human diffuse large B-cell lymphoma cell line WSU-DLCL2; assay: Cell proliferation inhibition (CCK-8) in WSU-DLCL2; type: cell-based; details: WSUDLCL2, WSU-DLCL2 cells, 72 h treatment, read-out: IC50 (half inhibitory concentration) in tumor cells, WSU-DLCL2
From the text: as §1, with “The cells used were identified as correct cells by STR cells, and were negative for mycoplasma through routine inspections.” left out
as §4

[10] = tested on: human mantle cell lymphoma cell line Mino; assay: Cell proliferation inhibition (CCK-8) in Mino; type: cell-based; details: MINO cells, 72 h treatment, read-out: IC50 (half inhibitory concentration) in tumor cells, MINO
From the text: as §1, with “The cells used were identified as correct cells by STR cells, and were negative for mycoplasma through routine inspections.” left out
as §4

[11] = tested on: IKZF1/3; assay: IKZF protein degradation, western blotting assay in WSU-DLCL2; type: cell-based, human; details: dose-dependent, FIGS. 4-5
Description: as §5

| IC50 [1] [nM] | IC50 [2] [nM] | IC50 [4] [nM] | IC50 [5] [nM] | IC50 [9] [nM] | IC50 [10] [nM] | SMILES | inhibition of the level of TNF-α (in words) [3] | IKZF1/3 degradation (in words) [6] | inhibition of JEKO-1 cell line (in words) [7] | inhibition of SU-DHL-4 cell line (in words) [8] | IKZF1/3 degradation (in words) [11] |
| --- | --- | --- | --- | --- | --- | --- | --- | --- | --- | --- | --- |
| 10.6 ± 1.95 | 58.7 ± 22.4 |  |  |  |  | Cc1nc2cccc(NCc3ccc(CN4CCSCC4)cc3)c2c(=O)n1C1CCC(=O)NC1=O (centres unmarked) [SIAIS313074, 3-(2-methyl-4-oxo-5-((4-(thiomorpholinomethyl)benzyl)amino)quinazolin-3(4H)-yl)piperidine-2,6-dione] | better inhibitory activities than CC-122 |  |  |  |  |
| 2.62 ± 0.49 | 12.9 ± 3.87 | 103 | 307 | 164 | 5.05 | Cc1nc2cccc(NCc3ccc(CN4CCCCCC4)cc3F)c2c(=O)n1C1CCC(=O)NC1=O (centres unmarked) [SIAIS355035, 3-(5-((4-(azepan-1-ylmethyl)-2-fluorobenzyl)amino)-2-methyl-4-oxoquinazolin-3(4H)-yl)piperidine-2,6-dione] |  | can significantly degrade IKZF1/3 at effective concentration significantly lower than that of CC-122 | significantly stronger inhibitory effects as compared with CC-122 and lenalidomide | significantly stronger inhibitory effects as compared with CC-122 and lenalidomide | can significantly degrade IKZF1/3 at effective concentration significantly lower than that of CC-122 |
| 21.8 ± 4.3 | 158 ± 9.48 | 492 | > 1000 | > 1000 | 55 | Cc1nc2cccc(N)c2c(=O)n1C1CCC(=O)NC1=O (centres unmarked) [CC-122, Avadomide, reference compound] | the level of TNF-α was inhibited in a dose-dependent manner |  |  |  |  |
| 8.59 ± 1.32 | 54.6 ± 7.35 |  |  |  |  | Cc1nc2cccc(NCc3ccc(CN4CCOCC4)cc3)c2c(=O)n1C1CCC(=O)NC1=O (centres unmarked) [SIAIS264067, 3-(2-methyl-5-((4-(morpholinomethyl)benzyl)amino)-4-oxoquinazolin-3(4H)-yl)piperidine-2,6-dione] | better inhibitory activities than CC-122 |  |  |  |  |
| 4.82 ± 2.36 | 43.5 ± 17.9 |  |  |  |  | Cc1nc2cccc(NCc3ccc(CN4CCCCCC4)cc3)c2c(=O)n1C1CCC(=O)NC1=O (centres unmarked) [SIAIS313087, 3-(5-((4-(azepan-1-ylmethyl)benzyl)amino)-2-methyl-4-oxoquinazolin-3(4H)-yl)piperidine-2,6-dione] | better inhibitory activities than CC-122 |  |  |  |  |
